According to US10131644B2, “Aryl sultam derivatives as RORc modulators” (Genentech, Inc., priority 2014, dated 2018):

These molecules were tested against T1, RORc (Homo sapiens, UniProt P51449) (assay: In vitro RORc ligand binding assay (25-[3H]hydroxycholesterol displacement)). Conditions: IC50, IC50 values for RORc; unit inferred.
T1 sequence (P51449 269-508 limits assumed): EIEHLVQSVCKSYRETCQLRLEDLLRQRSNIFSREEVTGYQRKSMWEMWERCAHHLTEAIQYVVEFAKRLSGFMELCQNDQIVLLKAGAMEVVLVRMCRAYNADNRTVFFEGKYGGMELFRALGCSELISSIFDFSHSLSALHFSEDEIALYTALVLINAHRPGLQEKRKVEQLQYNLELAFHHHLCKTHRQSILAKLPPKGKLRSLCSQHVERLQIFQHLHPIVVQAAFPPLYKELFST

Compound | IC50 [nM]
C[C@H]1CC[C@H](c2ccccc2)S(=O)(=O)N1Cc1ccc(C2(O)CCS(=O)(=O)CC2)cc1F [Compound 42, (3S,6R)-2-(2-fluoro-4-(4-hydroxy-1,1-dioxidotetrahydro-2H-thiopyran-4-yl)benzyl)-3-methyl-6-phenyl-1,2-thiazinane 1,1-dioxide] | 190
CNC(=O)[C@]1(c2ccc(CN3[C@@H](C)CC[C@H](c4ccccc4)S3(=O)=O)c(F)c2)CC[C@H](n2cnnc2)CC1 [Compound 43, 1-[3-Fluoro-4-((3S,6R)-3-methyl-1,1-dioxo-6-phenyl[1,2]thiazinan-2-ylmethyl)-phenyl]-4-[1,2,4]triazol-4-yl-cyclohexanecarboxylic acid methylamide] | 96
C[C@H]1CC[C@H](c2ccccc2)S(=O)(=O)N1Cc1ccc(C2(C(=O)O)CCOCC2)cc1F [Compound 44, 4-[3-Fluoro-4-((3S,6R)-3-methyl-1,1-dioxo-6-phenyl-[1,2]thiazinan-2-ylmethyl)-phenyl]-tetrahydro-pyran-4-carboxylic acid] | 1100
C[C@H]1CC[C@@H](c2ccccc2)S(=O)(=O)N1Cc1ccc(C2(C(=O)O)CCOCC2)cc1F [Compound 45, 4-[3-Fluoro-4-((3S,6S)-3-methyl-1,1-dioxo-6-phenyl-[1,2]thiazinan-2-ylmethyl)-phenyl]-tetrahydro-pyran-4-carboxylic acid] | 6100
COC(=O)C1(c2ccc(CN3C(C)CCC(c4ccccc4)S3(=O)=O)c(F)c2)CCC(n2cnnc2)CC1 (centres unmarked) [Compound 46, methyl 1-(3-fluoro-4-((3-methyl-1,1-dioxido-6-phenyl-1,2-thiazinan-2-yl)methyl)phenyl)-4-(4H-1,2,4-triazol-4-yl)cyclohexanecarboxylate] | 54
C[C@H]1CC[C@@H](c2ccccc2)S(=O)(=O)N1Cc1ccc(C2(C(=O)NCCO)CCOCC2)cc1F [Compound 47, 4-(3-fluoro-4-(((3S,6S)-3-methyl-1,1-dioxido-6-phenyl-1,2-thiazinan-2-yl)methyl)phenyl)-N-(2-hydroxyethyl)tetrahydro-2H-pyran-4-carboxamide] | 991
C[C@H]1CC[C@H](c2ccccc2)S(=O)(=O)N1Cc1ccc(C2(C(=O)NCCO)CCOCC2)cc1F [Compound 48, 4-(3-fluoro-4-(((3S,6R)-3-methyl-1,1-dioxido-6-phenyl-1,2-thiazinan-2-yl)methyl)phenyl)-N-(2-hydroxyethyl)tetrahydro-2H-pyran-4-carboxamide] | 337
CC(=O)N1CCC(O)(c2ccc(CN3[C@@H](C)CCC(c4ccccc4)S3(=O)=O)cc2)CC1 (stereo partly drawn) [Compound 49, 1-{4-Hydroxy-4-[4-((S)-3-methyl-1,1-dioxo-6-phenyl-[1,2]thiazinan-2-ylmethyl)-phenyl]-piperidin-1-yl}-ethanone] | 120
CC(=O)NCCNC(=O)C1(c2ccc(CN3[C@@H](C)CC[C@H](c4ccccc4)S3(=O)=O)c(F)c2)CCOCC1 [Compound 50, N-(2-acetamidoethyl)-4-[3-fluoro-4-[[(3S,6R)-3-methyl-1,1-dioxo-6-phenyl-thiazinan-2-yl]methyl]phenyl]tetrahydropyran-4-carboxamide] | 250
CCNC(=O)C1(c2ccc(CN3[C@@H](C)CC[C@H](c4ccccc4)S3(=O)=O)c(F)c2)CCOCC1 [Compound 51, N-ethyl-4-[3-fluoro-4-[[(3S,6R)-3-methyl-1,1-dioxo-6-phenyl-thiazinan-2-yl]methyl]phenyl]tetrahydropyran-4-carboxamide] | 147
C[C@H]1CC[C@H](c2ccccc2)S(=O)(=O)N1Cc1ccc(C2(C(=O)NCCN)CCOCC2)cc1F [Compound 52, N-(2-aminoethyl)-4-[3-fluoro-4-[[(3S,6R)-3-methyl-1,1-dioxo-6-phenyl-thiazinan-2-yl]methyl]phenyl]tetrahydropyran-4-carboxamide] | 480
C[C@H]1CC[C@H](c2ccccc2)S(=O)(=O)N1Cc1ccc(C2(C(=O)NCCN(C)C)CCOCC2)cc1F [Compound 53, N-[2-(dimethylamino)ethyl]-4-[3-fluoro-4-[[(3S,6R)-3-methyl-1,1-dioxo-6-phenyl-thiazinan-2-yl]methyl]phenyl]tetrahydropyran-4-carboxamide] | 845
C[C@H]1CC[C@H](c2ccccc2)S(=O)(=O)N1Cc1ccc(C2(C(=O)NCCCO)CCOCC2)cc1F [Compound 54, 4-[3-fluoro-4-[[(3S,6R)-3-methyl-1,1-dioxo-6-phenyl-thiazinan-2-yl]methyl]phenyl]-N-(3-hydroxypropyl)tetrahydropyran-4-carboxamide] | 79.8
C[C@H]1CC[C@H](c2ccccc2)S(=O)(=O)N1Cc1ccc(C2(C(=O)NCCCN)CCOCC2)cc1F [Compound 55, N-(3-aminopropyl)-4-[3-fluoro-4-[[(3S,6R)-3-methyl-1,1-dioxo-6-phenyl-thiazinan-2-yl]methyl]phenyl]tetrahydropyran-4-carboxamide] | 913
C[C@H]1CC[C@H](c2ccccc2)S(=O)(=O)N1Cc1ccc(C2(C(=O)NCC(=O)N(C)C)CCOCC2)cc1F [Compound 56, N-[2-(dimethylamino)-2-oxo-ethyl]-4-[3-fluoro-4-[[(3S,6R)-3-methyl-1,1-dioxo-6-phenyl-thiazinan-2-yl]methyl]phenyl]tetrahydropyran-4-carboxamide] | 403
C[C@H]1CC[C@H](c2ccccc2)S(=O)(=O)N1Cc1ccc(C2(C(=O)NCC#N)CCOCC2)cc1F [Compound 57, N-(cyanomethyl)-4-[3-fluoro-4-[[(3S,6R)-3-methyl-1,1-dioxo-6-phenyl-thiazinan-2-yl]methyl]phenyl]tetrahydropyran-4-carboxamide] | 80.2
C[C@H]1CC[C@H](c2ccccc2)S(=O)(=O)N1Cc1ccc(C2(C(=O)NCC(=O)O)CCOCC2)cc1F [Compound 58, 2-[[4-[3-fluoro-4-[[(3S,6R)-3-methyl-1,1-dioxo-6-phenyl-thiazinan-2-yl]methyl]phenyl]tetrahydropyran-4-carbonyl]amino]acetic acid] | 228
C[C@H]1CC[C@H](c2ccccc2)S(=O)(=O)N1Cc1ccc(C2(C(=O)NCC(N)=O)CCOCC2)cc1F [Compound 59, N-(2-amino-2-oxo-ethyl)-4-[3-fluoro-4-[[(3S,6R)-3-methyl-1,1-dioxo-6-phenyl-thiazinan-2-yl]methyl]phenyl]tetrahydropyran-4-carboxamide] | 268
C[C@H]1CC[C@H](c2ccccc2)S(=O)(=O)N1Cc1ccc(C2(C(=O)NCCS(C)(=O)=O)CCOCC2)cc1F [Compound 60, 4-[3-fluoro-4-[[(3S,6R)-3-methyl-1,1-dioxo-6-phenyl-thiazinan-2-yl]methyl]phenyl]-N-(2-methylsulfonylethyl)tetrahydropyran-4-carboxamide] | 111
C[C@H]1CC[C@H](c2ccccc2)S(=O)(=O)N1Cc1ccc(C2(C#N)CCOCC2)cc1F [Compound 61, 4-[3-fluoro-4-[[(3S,6R)-3-methyl-1,1-dioxo-6-phenyl-thiazinan-2-yl]methyl]phenyl]tetrahydropyran-4-carbonitrile] | 186

The remaining lines, values ahead:

IC50 [nM] | Compound
149 | C[C@H]1CC[C@H](c2ccccc2)S(=O)(=O)N1Cc1ccc(C2(C(=O)NCC(C)(C)O)CCOCC2)cc1F [Compound 62, 4-[3-fluoro-4-[[(3S,6R)-3-methyl-1,1-dioxo-6-phenyl-thiazinan-2-yl]methyl]phenyl]-N-(2-hydroxy-2-methyl-propyl)tetrahydropyran-4-carboxamide]
36 | C[C@H](O)CNC(=O)C1(c2ccc(CN3[C@@H](C)CC[C@H](c4ccccc4)S3(=O)=O)c(F)c2)CCOCC1 [Compound 63, 4-[3-fluoro-4-[[(3S,6R)-3-methyl-1,1-dioxo-6-phenyl-thiazinan-2-yl]methyl]phenyl]-N-[(2S)-2-hydroxypropyl]tetrahydropyran-4-carboxamide]
89 | COCCNC(=O)C1(c2ccc(CN3[C@@H](C)CC[C@H](c4ccccc4)S3(=O)=O)c(F)c2)CCOCC1 [Compound 64, 4-[3-fluoro-4-[[(3S,6R)-3-methyl-1,1-dioxo-6-phenyl-thiazinan-2-yl]methyl]phenyl]-N-(2-methoxyethyl)tetrahydropyran-4-carboxamide]
52.9 | C[C@H]1CC[C@H](c2ccccc2)S(=O)(=O)N1Cc1ccc(C2(C(=O)NCCC#N)CCOCC2)cc1F [Compound 65, N-(2-cyanoethyl)-4-[3-fluoro-4-[[(3S,6R)-3-methyl-1,1-dioxo-6-phenyl-thiazinan-2-yl]methyl]phenyl]tetrahydropyran-4-carboxamide]
47.4 | C[C@@H](O)CNC(=O)C1(c2ccc(CN3[C@@H](C)CC[C@H](c4ccccc4)S3(=O)=O)c(F)c2)CCOCC1 [Compound 66]
18 | C[C@H]1CC[C@H](c2ccccc2)S(=O)(=O)N1Cc1ccc(C2(C(N)=O)CCOCC2)cc1F [Compound 67, 4-[3-fluoro-4-[[(3S,6R)-3-methyl-1,1-dioxo-6-phenyl-thiazinan-2-yl]methyl]phenyl]tetrahydropyran-4-carboxamide]
38.5 | C[C@H]1CC[C@H](c2ccccc2)S(=O)(=O)N1Cc1ccc(C2(CO)CCOCC2)cc1F [Compound 68, [4-[3-fluoro-4-[[(3S,6R)-3-methyl-1,1-dioxo-6-phenyl-thiazinan-2-yl]methyl]phenyl]tetrahydropyran-4-yl]methanol]
93 | C[C@H]1CC[C@H](c2ccccc2)S(=O)(=O)N1Cc1ccc(C2(O)CCOCC2)cc1F [Compound 69, 4-[3-fluoro-4-[[(3S,6R)-3-methyl-1,1-dioxo-6-phenyl-thiazinan-2-yl]methyl]phenyl]tetrahydropyran-4-ol]
148 | CC(=O)NCC1(c2ccc(CN3[C@@H](C)CC[C@H](c4ccccc4)S3(=O)=O)c(F)c2)CCOCC1 [Compound 70, N-[[4-[3-fluoro-4-[[(3S,6R)-3-methyl-1,1-dioxo-6-phenyl-thiazinan-2-yl]methyl]phenyl]tetrahydropyran-4-yl]methyl]acetamide]
